Laboratory results: patent publication US12661360B2 (Tulex Pharmaceuticals Inc., priority 2023, dated 2026)
Values after ≈ are worked out from the molar mass of the structure shown.

Test: Solubilities of lamotrigine in various non-aqueous solvents and purified water
Type: physicochemical

solubility (organic solvent or mixture, solvent Glycerin): 20.2 mg/mL (≈ 79 mM) | solubility (organic solvent or mixture, solvent PEG 400): > 30 mg/mL | solubility (organic solvent or mixture, solvent Polypropylene glycol 400): 10 to 20 mg/mL (≈ 39 to 78.1 mM) | solubility (organic solvent or mixture, solvent Propylene Glycol): 40.2 mg/mL (≈ 157 mM) | solubility (solvent Purified water): 0.31 mg/mL (≈ 1.21 mM)
SMILES: Nc1nnc(-c2cccc(Cl)c2Cl)c(N)n1 [lamotrigine, 3,5-diamino-6-(2,3-dichlorophenyl)-1,2,4-triazine]
